Biological target: Sigma non-opioid intracellular receptor 1 (Homo sapiens, UniProt Q99720)
Test: Binding affinity for [3H]- pentazocine at sigma opioid receptor

Chain of Sigma non-opioid intracellular receptor 1 (Q99720 whole entry): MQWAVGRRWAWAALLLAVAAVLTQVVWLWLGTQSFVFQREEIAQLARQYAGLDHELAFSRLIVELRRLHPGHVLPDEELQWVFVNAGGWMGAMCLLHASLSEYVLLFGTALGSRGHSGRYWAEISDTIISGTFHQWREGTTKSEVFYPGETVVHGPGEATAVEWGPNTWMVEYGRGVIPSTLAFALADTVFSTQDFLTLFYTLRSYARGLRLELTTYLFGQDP

Row | Structure (SMILES) | Ki [nM]
1 | NCCC[C@H]1C(=O)N([C@H](CC2CCCCC2)C(N)=O)C(=O)N1Cc1ccccc1 | 406
2 | NCCCCC[C@@H]1C(=O)N([C@H](CC2CCCCC2)C(N)=O)C(=O)N1Cc1ccccc1 | 3630
3 | CC[C@H](C)[C@H](C(=O)NCc1ccccc1)N1C(=O)[C@@H](CCCCCN)N(Cc2ccccc2)C1=O | 4610
4 | CCC[C@H](C(=O)NCc1ccccc1)N1C(=O)[C@@H](CCCN)N(Cc2ccccc2)C1=O | 435
5 | CCC[C@H](C(=O)NCc1ccccc1)N1C(=O)[C@@H](CCCCCN)N(Cc2ccccc2)C1=O | 2420

Compounds with a lower Ki, results first:

Row | Ki [nM] | Structure (SMILES)
6 | 333 | CC[C@H](C)[C@H](C(=O)NCc1ccccc1)N1C(=O)[C@@H](CCCN)N(Cc2ccccc2)C1=O
7 | 254 | NCCCC[C@@H]1C(=O)N([C@@H](CC2CCCCC2)C(N)=O)C(=O)N1Cc1ccccc1
8 | 189 | NCCCC[C@@H]1C(=O)N([C@H](CC2CCCCC2)C(N)=O)C(=O)N1Cc1ccccc1
9 | 125 | CC[C@@H](C)[C@H](C(=O)NCc1ccccc1)N1C(=O)[C@@H](CCCCN)N(Cc2ccccc2)C1=O
10 | 80 | CCC[C@H](C(=O)NCc1ccccc1)N1C(=O)[C@@H](CCCCN)N(Cc2ccccc2)C1=O
11 | 64 | CCC[C@H](C(=O)NCc1ccccc1)N1C(=O)[C@H](CCCCN)N(Cc2ccccc2)C1=O
12 | 62 | CC[C@H](C)[C@@H](C(=O)NCc1ccccc1)N1C(=O)[C@@H](CCCCN)N(Cc2ccccc2)C1=O

Reference: ChEMBL document CHEMBL1130940, “Combinatorial chemistry: from peptides and peptidomimetics to small organic and heterocyclic compounds” (Bioorg Med Chem Lett, 1998)
